“Also recorded” adds a separate entry of the source. Read-outs that look alike come from different tables or passages of the source.
Columns and labels:
[1] = tested on: C4-2B; experiment: Cytotoxic activity test (MTT) on C4-2B prostate cancer cells; assay type: cell-based, human; settings: C4-2B cells
Experimental: (§1) All prostate cancer cells were cultured with a RPMI-1640 medium containing 10% calf serum, 100 units of penicillin per milliliter and 100 µg/mL of streptomycin in a constant temperature incubator containing 5% carbon dioxide at a saturated humidity of 37° C.
(§2) Cells in the logarithmic phase of growth were taken and cultured in 96-well plates for 24 hours (5×10^3 cells/well), then treated with different concentrations of the compounds to be tested, and incubated by MTT method for 4 hours. The supernatant was removed by centrifugation, the MTT crystals were dissolved by adding DMSO, and the absorbance value was measured by an enzyme-linked immunosorbent assay at a wavelength of 570 nm. The cytotoxic activity of the compounds to be tested on cancer cells was expressed as IC50.

[2] = tested on: C4-2B/ENZR; experiment: Cytotoxic activity test (MTT) on C4-2B/ENZR prostate cancer cells; assay type: cell-based, human; settings: C4-2B/ENZR cells
Experimental: as §1, §2

[3] = tested on: RWPE-1; experiment: Cytotoxic activity test (MTT) on normal human prostate cell RWPE-1; assay type: cell-based
Experimental: as §1, §2

[4] = tested on: 22RV1; experiment: Cytotoxic activity test (MTT) on 22RV1 prostate cancer cells; assay type: cell-based, human; settings: 22RV1 cells, MTT, read-out: Prostate cancer cells IC50 22RV1
Experimental: as §1, §2

[5] = tested on: Vcap-CRPC; experiment: Cytotoxic activity test (MTT) on Vcap-CRPC prostate cancer cells; assay type: cell-based, human; settings: Vcap-CRPC cells, MTT, read-out: Prostate cancer cells IC50 Vcap-CRPC
Experimental: as §1, §2

[6] = tested on: LNcap; experiment: Cytotoxic activity test (MTT) on LNcap prostate cancer cells; assay type: cell-based, human; settings: LNcap cells, MTT, read-out: Prostate cancer cells IC50 LNcap
Experimental: as §1, §2

[7] = tested on: prostate cancer cells; experiment: Inhibitory activity on a variety of prostate cancer cells (Table 1); assay type: cell-based, human; settings: structure-activity statements on Table 1
Experimental: as §1, §2

[8] = normal human prostate cell RWPE-1, MTT, read-out: Normal cells RWPE-1 (IC50)
[9] = Homo sapiens, RWPE-1, read-out: Normal cells RWPE-1 (IC50)

SMILES	IC50 [3, 8]	IC50 [4]	IC50 [1]	IC50 [2]	also measured
COc1cccc2c1C(=O)c1c(O)c3c(c(O)c1C2=O)C[C@@](O)(C(=O)CO)C[C@@H]3O[C@H]1C[C@H](N)[C@H](O)[C@H](C)O1 [DOX, doxorubicin, reference compound]	33.3 nM				IC50 ([1]; Homo sapiens): 1.04 nM; IC50 ([2]; Homo sapiens): 2.87 nM; IC50 ([4]; Homo sapiens): 5.99 nM; IC50 ([5]; Homo sapiens): 12.4 nM
C=C(C)[C@@]12OC3(c4ccccc4)O[C@@H]1[C@@H]1[C@@H]4O[C@]4(CO)[C@@H](O)[C@]4(O)C(=O)C(C)=C[C@H]4[C@@]1(O3)[C@H](C)[C@H]2OC(=O)CCC [YH-1]	43500 nM	5.74 nM			
C=C(C)[C@@]12OC3(c4ccccc4)O[C@@H]1[C@@H]1[C@@H]4O[C@]4(CO)[C@@H](O)[C@]4(O)C(=O)C(C)=C[C@H]4[C@@]1(O3)[C@H](C)[C@H]2OC(=O)C(C)C [YH-2]	40300 nM	26.5 nM			
C=C(C)[C@@]12OC3(c4ccccc4)O[C@@H]1[C@@H]1[C@@H]4O[C@]4(CO)[C@@H](O)[C@]4(O)C(=O)C(C)=C[C@H]4[C@@]1(O3)[C@H](C)[C@H]2OC(=O)CC [YH-3]	57200 nM	434 nM	8.95 nM		IC50 [6]: 3.77 nM; IC50 [5]: 1.74 nM
C=C(C)[C@@]12OC3(c4ccccc4)O[C@@H]1[C@@H]1[C@@H]4O[C@]4(CO)[C@@H](O)[C@]4(O)C(=O)C(C)=C[C@H]4[C@@]1(O3)[C@H](C)[C@H]2OC(C)=O [YH-6]	44200 nM				IC50 ([6]; Homo sapiens): 3.89 nM; IC50 ([1]; Homo sapiens): 0.367 nM; IC50 ([2]; Homo sapiens): 2.34 nM; IC50 ([4]; Homo sapiens): 52.5 nM; IC50 ([5]; Homo sapiens): 21.2 nM
C=C(C)[C@@]12OC3(c4ccccc4)O[C@@H]1[C@@H]1[C@@H]4O[C@]4(COC(=O)c4ccccc4)[C@@H](O)[C@]4(O)C(=O)C(C)=C[C@H]4[C@@]1(O3)[C@H](C)[C@H]2OC(C)=O [YH-9]					IC50 ([1]; Homo sapiens): 380 nM; IC50 ([2]; Homo sapiens): 1460 nM; inhibitory activity on prostate cancer cells (in words) [7]: significant decrease in activity
C=C(C)[C@@]12OC3(c4ccccc4)O[C@@H]1[C@@H]1[C@@H]4O[C@]4(CO)[C@@H](O)[C@]4(O)C(=O)C(C)=C[C@H]4[C@@]1(O3)[C@H](C)[C@H]2OC(=O)c1ccccc1 [YH-11]	13400 nM				inhibitory activity on prostate cancer cells (in words) [7]: most prominent
C=C(C)[C@@]12OC3(c4ccccc4)O[C@@H]1[C@@H]1[C@@H]4O[C@]4(COC(C)=O)[C@@H](OC(C)=O)[C@]4(O)C(=O)C(C)=C[C@H]4[C@@]1(O3)[C@H](C)[C@H]2OC(=O)c1ccccc1 [YH-12]					IC50 ([1]; Homo sapiens): 557 nM; IC50 ([2]; Homo sapiens): 1900 nM; inhibitory activity on prostate cancer cells (in words) [7]: significant decrease in activity
C=C(C)[C@@]12OC3(c4ccccc4)O[C@@H]1[C@@H]1[C@@H]4O[C@]4(COC(C)=O)[C@@H](O)[C@]4(O)C(=O)C(C)=C[C@H]4[C@@]1(O3)[C@H](C)[C@H]2OC(=O)c1ccccc1 [YH-13]	35700 nM				IC50 ([6]; Homo sapiens): 4.53 nM; IC50 ([2]; Homo sapiens): 6.79 nM; IC50 ([4]; Homo sapiens): 83.2 nM; IC50 ([5]; Homo sapiens): 67.2 nM
C=C(C)[C@@]12OC3(/C=C/C=C/CCCCC)O[C@@H]1[C@@H]1[C@@H]4O[C@]4(COC(C)=O)[C@@H](O)[C@]4(O)C(=O)C(C)=C[C@H]4[C@@]1(O3)[C@H](C)[C@H]2OC(=O)c1ccccc1 [YH-19]			64.4 nM	136 nM	inhibitory activity on prostate cancer cells (in words) [7]: significant decrease in activity
C=C(C)[C@@]12OC3(/C=C/C=C/CCCCC)O[C@@H]1[C@@H]1[C@@H]4O[C@]4(CO)[C@@H](O)[C@]4(O)C(=O)C(C)=C[C@H]4[C@@]1(O3)[C@H](C)[C@H]2OC(C)=O [YH-22]					inhibitory activity on prostate cancer cells (in words) [7]: most prominent; also recorded: more cytotoxic; IC50 [3, 9]: 5890 nM
C=C(C)[C@@]12OC3(/C=C/C=C/CCCCC)O[C@@H]1[C@@H]1[C@@H]4O[C@]4(COC(C)=O)[C@@H](O)[C@]4(O)C(=O)C(C)=C[C@H]4[C@@]1(O3)[C@H](C)[C@H]2OC(C)=O [YH-24]	21900 nM	45.8 nM		67.3 nM	IC50 [6]: 48.2 nM; IC50 [5]: 76.2 nM
C=C(C)C12OC3(c4ccccc4)OC1C1C4OC4(CO)C(O)C4(O)C(=O)C(C)CC4C1(O3)C(C)C2OC(C)=O (centres unmarked) [YH-35]	42900 nM	144 nM	0.426 nM	1.92 nM	IC50 [6]: 4.82 nM; IC50 [5]: 64.2 nM
C=C(C)C12OC3(c4ccccc4)OC1C1C4OC4(CO)C(O)C4(O)C(=O)C(C)CC4C1(O3)C(C)C2OC(=O)c1ccccc1 (centres unmarked) [YH-36]	14600 nM	42.5 nM			
CCCCCCCCCC12O[C@@H]3[C@@H]4[C@@H]5O[C@]5(CO)[C@@H](O)[C@]5(O)C(=O)C(C)=C[C@H]5[C@@]4(O1)[C@H](C)[C@@H](OC(C)=O)[C@]3(C(C)C)O2 [YH-37]	10300 nM				
CCCCCCCCCC12O[C@@H]3[C@@H]4[C@@H]5O[C@]5(CO)[C@@H](O)[C@]5(O)C(=O)[C@@H](C)C[C@H]5[C@@]4(O1)[C@H](C)[C@@H](OC(C)=O)[C@]3(C(C)C)O2 [YH-38]	20600 nM				IC50 ([4]; Homo sapiens): 5.42 nM
CC(C)[C@@]12OC3(c4ccccc4)O[C@@H]1[C@@H]1[C@@H]4O[C@]4(CO)[C@@H](O)[C@]4(O)C(=O)[C@@H](C)C[C@H]4[C@@]1(O3)[C@H](C)[C@H]2OC(=O)c1ccccc1 [YH-39]	18500 nM				IC50 ([4]; Homo sapiens): 6.73 nM
CC1=C[C@@H]2[C@@](O)(C1=O)[C@H](O)[C@@]1(CO)O[C@H]1[C@H]1[C@H]3OC4(c5ccccc5)O[C@@]3(C(C)C)[C@H](OC(=O)c3ccccc3)[C@@H](C)[C@@]12O4 [YH-40]	20300 nM				
C=C(C)[C@@]12OC3(C)O[C@@H]1[C@@H]1C=C(CO)C[C@]4(O)C(=O)C(C)=C[C@H]4[C@@]1(O3)[C@H](C)[C@H]2OC(=O)c1ccccc1 [YH-44]	17400 nM	4650 nM	193 nM	641 nM	IC50 [6]: 74.8 nM; IC50 [5]: 306 nM
C=C(C)[C@@]12OC3(c4ccccc4)O[C@@H]1[C@@H]1[C@@H](Br)[C@@](O)(CO)[C@@H](O)[C@]4(O)C(=O)C(C)=C[C@H]4[C@@]1(O3)[C@H](C)[C@H]2OC(=O)c1ccccc1 [YH-53]					IC50 [3, 9]: 56300 nM
C=C(C)C1(O)C(OC(=O)c2ccccc2)C(C)C2(O)C(C(O)C(O)(CO)C(O)C3(O)C(=O)C(C)=CC32)C1OC(=O)c1ccccc1 (centres unmarked) [YH-56]	35100 nM	47100 nM	4470 nM	2690 nM	IC50 [6]: 13100 nM; IC50 [5]: 15400 nM
C=C(C)C1(O)C(O)C2C3OC3(CO)C(O)C3(O)C(=O)C(C)=CC3C2(O)C(C)C1OC(=O)c1ccccc1 (centres unmarked) [YH-57]	41100 nM	46700 nM	2320 nM	1870 nM	IC50 [6]: 4820 nM; IC50 [5]: 40800 nM
C=C(C)C1(O)C(O)C2C3OC3(CO)C(O)C3(O)C(=O)C(C)=CC3C2(O)C(C)C1OC(C)=O (centres unmarked) [YH-58]			33600 nM	40200 nM	
C=C(C)[C@@]1(O)[C@H](OC(=O)c2ccccc2)[C@@H]2[C@@H]3O[C@]3(CO)[C@@H](O)[C@]3(O)C(=O)C(C)=CC3[C@@]2(O)[C@H](C)[C@H]1OC(=O)c1ccccc1 (some centres unmarked) [YH-60]	4810 nM				IC50 ([6]; Homo sapiens): 2.85 nM; IC50 ([1]; Homo sapiens): 49.4 nM; IC50 ([2]; Homo sapiens): 73.9 nM; IC50 ([4]; Homo sapiens): 3890 nM; IC50 ([5]; Homo sapiens): 911 nM
C=C(C)C1(O)C(O)C(C)C2(O)C(C3OC3(CO)C(O)C3(O)C(=O)C(C)=CC32)C1OC(=O)C=CC=CCCCCC (centres unmarked) [YH-61]			189 nM	543 nM	
